Results on eight compounds are retold here after patent US5719132A, “Compositions and methods of treating HIV with d4T, 5-fluorouracil/tegafur, and uracil” (priority 1996, dated 1998).

Like-named read-outs stand apart in the source and are kept apart here.

Series [1] deals with clinical HIV-1 isolate JEW. Nature of the series: anti-HIV activity (p24 production) in PHA-stimulated PBMC, clinical isolate JEW. The class given is cell-based. The following applies: for EC50: Human immunodeficiency virus 1, PBMC, mean of three experiments; for Fold Enhancement (d4T anti-HIV activity): Table 1; for Fold Enhancement (ddI anti-HIV activity): Table 2. The text has this:
.cndot."a" refers to the EC50 data as representing the mean values from three experiments, with duplicate determinations in each experiment.
Virus--A clinical HIV-1 isolate, JEW, was titrated with a infectivity assay [Johnson, V. A. and R. E. Byington. 1990. Infectivity assay, p. 71-76. in A. Aldovini and B. D. Walker (ed.), Techniques in HIV Research. Stockton Press, New York], and used in our experiments.
Chemicals--d4T was supplied by Bristol-Myers Squibb Company. 5-Fluorouracil(5-FU) was purchased from Sigma.
1. PBMC were infected by the clinical isolate JEW at a multiplicity of infection (MOI) of 0.001 at 37° C. for one hour, and then resuspended in RPMI 1640 medium (Gibco, Gaithersburg, Md.) containing 20% fetal bovine serum (FBS, Sigma), 1 ng/ml IL-2 and 2 mM L-glutamine (Gibco) at a concentration of 4×10^6 cells/ml.
2. d4T (2 μM) or ddI (40 μM) was serially diluted 1:3 into RPMI 1640 medium with a final volume of 100 μl/well in 96-well plates, and 50 μl of 2.0 μM, 0.8 μM and 0 μM 5-FU were then added to each well.
3. 50 μl of 4×10^6 / ml infected PBMC were added to each well in these plates to get a final 1×10^6 cells/ml, and incubated at 37° C.
4. Half media (100 μl) from each well were removed and replaced with fresh medium containing same concentrations of drug at day 3 or 4.
5. Samples were collected at day 7 and the p24 levels were quantitated using a HIV p24 ELISA kit (Dupont, Boston, Mass.).

For series [2] the following is noted: in vivo; cited from earlier work.
Series [3] relates to thymidylate synthetase (TS). The following applies: cited from earlier work.
Another series concerns PHA-PBMC. Briefly: cytotoxicity in PBMC by trypan blue exclusion.
Another series is described as follows: in vitro. Conditions: human, pha-stimulated pbmc.
For series [4], the system named is human immunodeficiency virus (HIV). Conditions: cited from earlier work.
For series [5] the following is noted: clinical studies; cited from earlier work.
A further series relates to clinical HIV isolate OLR. Nature of the series: anti-HIV activity in PBMC, clinical isolate OLR. The following applies: with 0.1 μM 5-FU. Format: cell-based.
Series [6] concerns HIV-1 reverse transcriptase. The following applies: in vitro; cited from earlier work.
In series [7] the test system is HIV. The following applies: cited from earlier work.
Series [8] has as its system HIV. The following applies: 20 patients treated for up to 24 months; cited from earlier work.
For series [9] the following is noted: cited from earlier work.
The subject of series [10] is HIV. Conditions: lowering of endogenous dATP; cited from earlier work.
Series [11] deals with degradation of 5-fluorouracil. Conditions: in vitro; cited from earlier work.

Description for PHA-PBMC: (§1) Cells--Peripheral blood mononuclear cells (PBMC) from normal individuals were prepared by Ficoll-Hypaque gradient centrifugation of venous blood with citrate as an anticoagulant and stimulated with phytoagglutinin (PHA--P, 4 μg/ml, Sigma Chemical, St. Louis, Mo.) and interleukin-2 (IL-2, 1 ng/ml, Upstate Biotechnology Inc., Lake Placid, N.Y.) for three days.
(§2) To determine the cytotoxicity of 5-FU, uninfected PBMC were incubated with a series of concentrations of 5-FU (i.e., 0.04, 0.16, 0.63, 2.5 and 10 μM). To determine whether 5-FU can affect the cytotoxicity of d4T, uninfected PBMC were incubated with a series of concentrations of d4T (i.e., 0.8, 3.1, 12.5, 50 and 200 μM) containing 0.02 μM of 5-FU. This was repeated with d4T using 5-FU concentrations of 0.1 μM and 0.5 μM, respectively. Cell viability was monitored by trypan blue exclusion assay. Results were expressed as a percentage of living cells in drug testing wells compared to those in untreated control wells. The 50% cytotoxic concentration (CC50) was calculated as the concentration of drugs that decreased the percentage of living cells in drug-treated wells to 50% of those in untreated wells.
Description for clinical HIV isolate OLR: The 50% cytotoxicity concentration of 5-FU in PHA--PBMC is approximately 9 μM (i.e. micromolar) as determined by trypan blue staining.
Description for in vitro: as §1, §2

In the case of `O=c1[nH]cc(F)c(=O)[nH]1` [5-FU, 5-fluorouracil], the “potentiating effect on the anti-HIV activity of ddI” value in series [1] (up to 0.5 μM 5-FU, PBMC) was “no potentiating effect”. Besides, in series [1] (up to 0.5 μM, PHA-PBMC acutely infected by isolate JEW), the antiviral activity alone result is “no antiviral activity”. The half-life result in [2] was “very short half-life”. Besides, in series [3], the TS inhibition entry is reported as “effective TS inhibitor”. The “toxicity to PBMC” value in the series with PHA-PBMC (up to 0.5 μM) is “non-toxic”. For the same compound, the “potentiating effect on d4T cytotoxicity” value with PHA-PBMC (up to 0.5 μM 5-FU, PBMC) was “no potentiating effect”. The CC50 in the series “in vitro” is ~9 µM.
On to `Nc1ccn([C@H]2C=C[C@@H](CO)O2)c(=O)n1` [d4C, 2',3'-dideoxycytidin-2'-ene], for which, in series [4], the “antiviral activity against HIV” value is reported as “demonstrated antiviral activity”.
As a reminder, the EC50 is the concentration needed to bring the measured effect to its halfway point. Take `Cc1cn([C@H]2C=C[C@@H](CO)O2)c(=O)[nH]c1=O` [d4T, 2',3'-didehydro-3'-deoxythymidine]: the concentration for a half-maximal effect (EC50) came out at 0.098 ± 0.042 µM in series [1] (read-out: EC50 of d4T, PHA-stimulated PBMC, isolate JEW, 5-FU 0 μM); 0.092 ± 0.039 µM in series [1] (read-out: EC50 of d4T, PHA-stimulated PBMC, isolate JEW, with 5-FU 0.2 μM); 0.027 ± 0.015 µM in [1] (read-out: EC50 of d4T, PHA-stimulated PBMC, isolate JEW, with 5-FU 0.5 μM). Moreover, the “fold enhancement of the anti-HIV activity of d4T” value in series [1] (with 0.5 μM 5-FU, isolate JEW) is reported as ≤ 4 fold. In addition, the “Fold Enhancement (d4T anti-HIV activity)” value in series [1] (with 5-FU 0.2 μM) stood at 1 X; in series [1] (with 5-FU 0.5 μM) it was 4 X. Also, in [4], the “antiviral activity against HIV” value is on record as “demonstrated antiviral activity”. Further, the oral bioavailability entry in series [5] is reported as “greater than 80%”. In the series with clinical HIV isolate OLR, the “fold enhancement of d4T activity” value came to 4.5 fold. For the same compound, the “inhibition of HIV-1 reverse transcriptase” value in series [6] is “potent inhibitor”. Moreover, the “time until CD4 counts and serum p24 levels return to baseline” value in the series with HIV [7] (duration of anti-viral responses in patients) is reported as “approximately 6 months”. Also, in the series on HIV [7] (treated patients), the CD4 counts result is “increases in CD4 counts”. Besides, in the series on HIV [7] (treated patients), the “serum p24 levels and infectious HIV titers in PBMC” value was “decreases in both serum p24 levels and infectious HIV titers”. In addition, the resistant viruses isolated result with HIV [8] was “no resistant viruses can be isolated”. In addition, the dose-limiting toxicity result in [9] (clinical studies) is given as “peripheral neuropathy”. Besides, the undesirable side effects entry in series [9] (human, in vivo) is “peripheral neuropathy”.
In the case of `Nc1ncnc2c1ncn2[C@H]1CC[C@@H](CO)O1` [ddA, 2',3'-dideoxyadenosine], in series [4], the “antiviral activity against HIV” value is on record as “demonstrated antiviral activity”.
On to `Nc1ccn([C@H]2CC[C@@H](CO)O2)c(=O)n1` [ddC, 2',3'-dideoxycytidine], for which the “antiviral activity against HIV” value in [4] is “demonstrated antiviral activity”.
On to `OC[C@@H]1CC[C@H](n2cnc3c(O)ncnc32)O1` [ddI, 2',3'-dideoxyinosine], for which the EC50 in [1] (PHA-stimulated PBMC, isolate JEW, 5-FU 0 μM, read-out: EC50 of ddI) was 0.1 ± 0.032 µM; in series [1] (PHA-stimulated PBMC, isolate JEW, with 5-FU 0.2 μM, read-out: EC50 of ddI), 0.17 ± 0.002 µM. Besides, the “Fold Enhancement (ddI anti-HIV activity)” value in series [1] (with 5-FU 0.2 μM) is 0.6 X; in series [1] (with 5-FU 0.5 μM), 0.7 X. The “antiviral activity against HIV” value in [4] was “demonstrated antiviral activity”.
Turning to `NC(=O)NO` [hydroxyurea], in the series on HIV [10], the “effect of hydroxyurea on anti-HIV activity of ddI” value is on record as “enhanced anti-HIV activity of ddI”.
With `O=c1cc[nH]c(=O)[nH]1` [uracil], the “inhibition of degradation of 5-fluorouracil” value in series [11] is on record as “strongly inhibits the degradation of 5-fluorouracil”.
